The values that follow come from US4192944A, “Optionally substituted 4-oxo-4H-pyrido[1,2-a]pyrimidine-3-N-(1H-tetrazol-4-yl)carboxamides and their use as antiallergy agents” (priority 1978, dated 1980).

For series [1] the following is noted: cited from earlier work.
Series [2] deals with release of mediators, e.g. histamine and SRS-A. The conditions noted are these: administered to asthmatic patients prior to inhalation of specific antigens; cited from earlier work.
For series [3] the following is noted: must be administered by inhalation; cited from earlier work.
The test system of series [4] is reagin-mediated Passive Cutaneous Anaphylaxis (PCA). Nature of the series: reagin-mediated rat Passive Cutaneous Anaphylaxis (PCA) screening test. The series is classed as in vivo. An excerpt:
The reagin-mediated rat Passive Cutaneous Anaphylaxis (PCA) screening test used to evaluate the present compounds is generally regarded as one of the best animal models for use in predicting the antiallergy activity of test compounds in man. This screen provides a measure of the effectiveness of test compounds in either inhibiting the release or antagonizing the action of mediators arising from the interaction of reaginic antibodies with specific antigen, mediators which are causative factors in allergic disorders. The details of the test are fully described in U.S. Pat. No. 4,031,093.
The test compounds were solubilized in aqueous sodium bicarbonate and administered intravenously (i.v.) or per os (p.o.) either one or ten minutes, respectively, prior to antigen challenge. Disodium cromoglycate (DSCG), solubilized in saline, was administered i.v. at the time of challenge and p.o 30 minutes prior to challenge.

[5] abbreviates: po, in aqueous sodium bicarbonate, ten minutes prior to antigen challenge, read-out: ID50 p.o. (dose of compound that inhibits 50% of the response).

Read-outs that look alike come from different tables or passages of the source.

With `O=C(O)c1cc(=O)c2c(OCC(O)COc3cccc4oc(C(=O)O)cc(=O)c34)cccc2o1` [DSCG, Disodium cromoglycate], the side effects entry in series [1] (in vivo) is recorded as “without cardiovascular side effects”. For the same compound, the “inhibition of release of mediators (histamine, SRS-A)” value in series [2] is on record as “inhibits the release of mediators”. For the same compound, the oral absorption result in series [3] is on record as “not orally absorbed”. Further, the ED50 in series [4] (iv, DSCG, i.v., in saline, at the time of challenge, read-out: ID50 i.v. (dose of compound that inhibits 50% of the response)) was 0.6 mg/kg; in series [4] (po, DSCG, p.o., in saline, 30 minutes prior to challenge, read-out: ID50 p.o. (dose of compound that inhibits 50% of the response)), greater than 30 mg/kg.

In the case of `O=C(Nc1nnn[nH]1)c1cnc2ccccn2c1=O` [Example 1, 4-Oxo-4H-pyrido[1,2-a]pyrimidine-3-N-(1H-tetrazol-5-yl)carboxamide], the ED50 in series [4] (setting [5]) is 0.2 mg/kg.

As to `Cc1cccn2c(=O)c(C(=O)Nc3nnn[nH]3)cnc12` [Example 2, 9-Methyl-4-oxo-4H-pyrido[1,2-a]pyrimidine-3-N-(1H-tetrazol-5-yl)carboxamide], the ED50 in series [4] (iv, in aqueous sodium bicarbonate, one minute prior to antigen challenge, read-out: ID50 i.v. (dose of compound that inhibits 50% of the response)) stood at 0.04 mg/kg; in series [4] (setting [5]) it was 0.1 mg/kg.

In the case of `CCc1cccn2c(=O)c(C(=O)Nc3nnn[nH]3)cnc12` [Example 3, 9-Ethyl-4-oxo-4H-pyrido[1,2-a]pyrimidine-3-N-(1H-tetrazol-5-yl)carboxamide], the ED50 in series [4] (setting [5]) turned out to be 0.1 mg/kg.

Consider `CN1[C@@H]2CC[C@H]1C[C@@H](OC(=O)C(CO)c1ccccc1)C2` (stereo partly shown) [atropine], for which the side effects entry in series [1] (treatment of bronchial asthma) was “cardiac stimulation and gastrointestinal distress”.

Turning to `CNC[C@H](O)c1ccc(O)c(O)c1` [epinephrine], the side effects entry in series [1] (treatment of bronchial asthma) is “cardiac stimulation and gastrointestinal distress”.

With `CC(C)NCC(O)c1ccc(O)c(O)c1` (stereo not shown) [isoproterenol], in series [1] (treatment of bronchial asthma), the side effects entry is “cardiac stimulation and gastrointestinal distress”.

Regarding `Cn1c(=O)c2[nH]cnc2n(C)c1=O` [theophylline], in series [1] (in vivo), the side effects result is “cardiac stimulation and gastrointestinal distress”.
